For 23 molecules, IC50, MCC and PDD50 results are on record in patent EP0080305A1, “Antiviral 2'-deoxyuridines, their preparation and use” (BEECHAM GROUP PLC, priority 1981, dated 1983).

Data set [1] has as its system Herpes simplex type 1 virus (HFEM strain). Nature of the data set: Plaque reduction test in Vero cells infected with Herpes simplex type 1 virus. The format is cell-based. The protocol:
(§1) Vero (African Green Monkey Kidney) cells were grown to confluence in 6 well multidishes, each well being 3.5 cm in diameter. The cells were incubated with Herpes simplex type 1 virus (HFEM strain) and overlaid with 0.5 mL of 0.9% agarose (w/v) in maintenance medium containing the test compound at a range of concentrations from 3 µg/mL in half-log dilution steps. The virus infected cultures were then incubated at 37 °C for 6 days before fixing in 4% formaldehyde solution and staining with carbolfuchsin. The dishes were then examined to find what concentration of test compound causing a 50% reduction in the number of virus plaques formed (PDD50 value) and the minimum concentration of test compound which killed the cell monolayer, leaving a clear zone devoid of cells and virus plaques (MTD).
A general note: In a plaque reduction assay, fewer plaques than in the control indicate reduced infectivity or spread.

Data set [2] in a line: Minimum concentration killing the Vero cell monolayer, read in the plaque reduction test. As to conditions: african green monkey; minimum concentration which killed the cell monolayer; virus-infected Vero cells, 6 days at 37°C; read-out: MTD. The format is cell-based, African Green Monkey. The protocol: as §1
[3] abbreviates: Human alphaherpesvirus 1, 144 h, concentration causing a 50% reduction in the number of virus plaques, 6 days at 37°C, read-out: PDD50 (the source's name).
[4] abbreviates: Human alphaherpesvirus 1, 144 h, same PDD50 values given in µM, 6 days at 37°C, read-out: PDD50 (the source's name).
The mark [5] stands for this setting: Human alphaherpesvirus 1, Vero, 144 h, read-out: PDD50, concentration causing a 50% reduction in the number of virus plaques, 6 days at 37°C.
[6] abbreviates: Human alphaherpesvirus 1, Vero, 144 h, read-out: PDD50, same PDD50 values given in µM, 6 days at 37°C.

Structures are written as SMILES. Structures can show the parent of a compound that is named as a salt. Where two headings read alike, the source gives them in different places. A value given as a limit tells only on which side of the number the result lay.

With `NC(Cc1ccc(F)cc1)C(=O)OC[C@H]1O[C@@H](n2cc(/C=C/Br)c(=O)[nH]c2=O)C[C@@H]1OC(=O)C(N)Cc1ccc(F)cc1` (mixture of isomers) [Example 15, E-5-(2-Bromovinyl)-3',5'-di-(p-fluoro-DL-phenylalanyl)-2'-deoxyuridine bis trifluoroacetate], the values for the IC50 in data set [1] (setting [3]) and in data set [1] (setting [4]) were 0.8 µg/mL and 0.9 µM, respectively. Moreover, the MCC at 144 h in data set [2] was greater than 100 µg/mL.
On the same counts, the results for `CC(C)(C)OC(=O)N[C@@H](Cc1ccccc1)C(=O)OC[C@H]1O[C@@H](n2cc(/C=C/Br)c(=O)[nH]c2=O)C[C@@H]1OC(=O)[C@H](Cc1ccccc1)NC(=O)OC(C)(C)C` [Example 1, E-5-(2-Bromovinyl)-3',5'-di-O-(tertbutoxycarbonylphenylalanyl)-2'-deoxyuridine] are 1.1 µg/mL, 1.33 µM and greater than 100 µg/mL.
Consider `CC(C)(C)OC(=O)N[C@@H](Cc1ccccc1)C(=O)O[C@H]1C[C@H](n2cc(/C=C/Br)c(=O)[nH]c2=O)O[C@@H]1CO` [Example 2, E-5-(2-bromovinyl)-3'-O-(tertbutoxycarbonylphenylalanyl)-2'-deoxyuridine], for which the IC50 in data set [1] (setting [3]) worked out at 0.16 µg/mL; in data set [1] (setting [4]) it was 0.28 µM. In data set [2], the MCC at 144 h is greater than 100 µg/mL.
For `CC(C)(C)OC(=O)N[C@@H](Cc1ccccc1)C(=O)OC[C@H]1O[C@@H](n2cc(/C=C/Br)c(=O)[nH]c2=O)C[C@@H]1O` [Example 3, E-5-(2-Bromovinyl)-5'-O-(tertbutoxycarbonylphenylalanyl)-2'-deoxyuridine], the IC50 in data set [1] (setting [3]) was found to be 0.25 µg/mL; in data set [1] (setting [4]), 0.43 µM. The MCC at 144 h in data set [2] was greater than 100 µg/mL.
Take `CC(C)(C)OC(=O)NCC(=O)OC[C@H]1O[C@@H](n2cc(/C=C/Br)c(=O)[nH]c2=O)C[C@@H]1OC(=O)CNC(=O)OC(C)(C)C` [Example 4, E-5-(2-Bromovinyl)-3',5'-di-O-(tert.butoxycarbonylglycyl)-2'-deoxyurdine]: the IC50 came to 1.95 µg/mL in data set [1] (setting [3]) and 3.01 µM in data set [1] (setting [4]). For the same molecule, in data set [2], the MCC at 144 h was greater than 100 µg/mL.
Regarding `CC(C)(C)OC(=O)NCC(=O)O[C@H]1C[C@H](n2cc(/C=C/Br)c(=O)[nH]c2=O)O[C@@H]1CO` [Example 5, E-5-(2-Bromovinyl)-3'-O-(tert.butoxycarbonylglycyl)-2'-deoxyuridine], the IC50 in data set [1] (setting [3]) came out at 0.48 µg/mL; in data set [1] (setting [4]) it was 0.98 µM. The MCC at 144 h in data set [2] is greater than 100 µg/mL.
Consider `CC(C)(C)OC(=O)NCC(=O)OC[C@H]1O[C@@H](n2cc(/C=C/Br)c(=O)[nH]c2=O)C[C@@H]1O` [Example 6, E-5-(2-Bromovinyl)-5'-O-(tert.-butoxycarbonylglycyl)-2'-deoxyuridine], for which the figures for the IC50 in data set [1] (setting [3]) and in data set [1] (setting [4]) were 0.54 µg/mL and 1.1 µM, respectively. In data set [2], the MCC at 144 h was greater than 100 µg/mL.
Take `NC(Cc1ccccc1)C(=O)O[C@H]1C[C@H](n2cc(/C=C/Br)c(=O)[nH]c2=O)O[C@@H]1CO` (some centres unmarked) [Example 8, E-5-(2-Bromovinyl)-3'-O-phenylalanyl-2'-deoxyuridine trifluoroacetate]: the IC50 came out at 0.45 µg/mL in data set [1] (setting [5]) and 0.76 µM in data set [1] (setting [6]). Also, the MCC at 144 h in data set [2] is greater than 100 µg/mL.
Regarding `NC(Cc1ccccc1)C(=O)OC[C@H]1O[C@@H](n2cc(/C=C/Br)c(=O)[nH]c2=O)C[C@@H]1OC(=O)C(N)Cc1ccccc1` (some centres unmarked) [Example 10], the results for the IC50 in data set [1] (setting [5]) and in data set [1] (setting [6]) were 0.19 µg/mL and 0.24 µM, respectively. Also, the MCC at 144 h in data set [2] was greater than 100 µg/mL.
`CC(C)C[C@H](NC(=O)OC(C)(C)C)C(=O)OC[C@H]1O[C@@H](n2cc(/C=C/Br)c(=O)[nH]c2=O)C[C@@H]1OC(=O)[C@H](CC(C)C)NC(=O)OC(C)(C)C` [Example 12, E-5-(2-Bromovinyl)-3',5'-di(t-butoxycarbonyl-L-leucyl)-2^1-deoxyuridine]: the IC50 in data set [1] (setting [3]) amounted to 0.86 µg/mL; in data set [1] (setting [4]) it was 1.13 µM. Moreover, in data set [2], the MCC at 144 h turned out to be 100 µg/mL.
On to `NCC(=O)OC[C@H]1O[C@@H](n2cc(/C=C/Br)c(=O)[nH]c2=O)C[C@@H]1O` [Example 13, E-5-(2-Bromovinyl)-5'-glycyl-2'-deoxyuridine trifluoroacetate], for which the IC50 in data set [1] (setting [5]) is 0.94 µg/mL; in data set [1] (setting [6]) it was 1.87 µM. Besides, the MCC at 144 h in data set [2] was greater than 100 µg/mL.
As to `NCC(=O)OC[C@H]1O[C@@H](n2cc(/C=C/Br)c(=O)[nH]c2=O)C[C@@H]1OC(=O)CN` [Example 14, E-5-(2-Bromovinyl)-3',5'-di-glycyl-2'-deoxyuridine bis trifluoroacetate], the results for the IC50 in data set [1] (setting [5]) and in data set [1] (setting [6]) were 0.36 µg/mL and 0.53 µM, respectively. Moreover, the MCC at 144 h in data set [2] is greater than 100 µg/mL.
In data set [1] (concentration causing a 50% reduction in the number of virus plaques, 6 days at 37°C, trifluoroacetate), `CC(C)C[C@H](N)C(=O)OC[C@H]1O[C@@H](n2cc(/C=C/Br)c(=O)[nH]c2=O)C[C@@H]1OC(=O)[C@@H](N)CC(C)C` [Example 16, E-5-(2-Bromovinyl)-3',5'-di-L-leucyl-2'-deoxyuridine trifluoroacetate] gave a PDD50 of 0.02 µg/mL. The IC50 in data set [1] (read-out: PDD50, same PDD50 values given in µM, 6 days at 37°C, trifluoroacetate) came to 0.025 µM. In addition, the MCC at 144 h in data set [2] is greater than 100 µg/mL.
With `CC(C)C[C@@H](NC(=O)OC(C)(C)C)C(=O)OC[C@H]1O[C@@H](n2cc(/C=C/Br)c(=O)[nH]c2=O)C[C@@H]1OC(=O)[C@@H](CC(C)C)NC(=O)OC(C)(C)C` [Example 19, E-5-(2-Bromovinyl)-3',5'-di-(t-butoxy-carbonyl-D-leucyl)-2'-deoxyuridine], the IC50 in data set [1] (setting [3]) was greater than 100 µg/mL. Besides, the MCC at 144 h in data set [2] was greater than 100 µg/mL.
Take `CC(C)(C)OC(=O)N[C@H](Cc1ccccc1)C(=O)OC[C@H]1O[C@@H](n2cc(/C=C/Br)c(=O)[nH]c2=O)C[C@@H]1OC(=O)[C@@H](Cc1ccccc1)NC(=O)OC(C)(C)C` [Example 20, E-5-(2-Bromovinyl)-3',5'-di-(t-butoxy-carbonyl-D-phenylalanyl)-2'-deoxyuridine]: the IC50 in data set [1] (setting [3]) was greater than 100 µg/mL. The MCC at 144 h in data set [2] is greater than 100 µg/mL.
With `CSCC[C@H](NC(=O)OC(C)(C)C)C(=O)OC[C@H]1O[C@@H](n2cc(/C=C/Br)c(=O)[nH]c2=O)C[C@@H]1OC(=O)[C@H](CCSC)NC(=O)OC(C)(C)C` [Example 21, E-5-(2-Bromovinyl)-3',5'-di-(t-butoxy-carbonyl-L-methionyl)-2'-deoxyuridine], the IC50 in data set [1] (setting [3]) came to 1.71 µg/mL; in data set [1] (setting [4]), 2.15 µM. In data set [2], the MCC at 144 h is greater than 100 µg/mL.
`CC(C)[C@H](NC(=O)OC(C)(C)C)C(=O)OC[C@H]1O[C@@H](n2cc(/C=C/Br)c(=O)[nH]c2=O)C[C@@H]1OC(=O)[C@@H](NC(=O)OC(C)(C)C)C(C)C` [Example 22, E-5-(2-Bromovinyl)-3',5'-di-(t-butoxy-carbonyl-L-valyl)-2'-deoxyuridine]: the IC50 in data set [1] (setting [3]) was greater than 100 µg/mL. In addition, the MCC at 144 h in data set [2] is greater than 100 µg/mL.
As to `CC[C@H](C)[C@H](NC(=O)OC(C)(C)C)C(=O)OC[C@H]1O[C@@H](n2cc(/C=C/Br)c(=O)[nH]c2=O)C[C@@H]1OC(=O)[C@@H](NC(=O)OC(C)(C)C)[C@@H](C)CC` [Example 23, E-5-(2-Bromovinyl)-3',5'-di-(t-butoxy-carbonyl-L-isoleucyl)-2'-deoxyuridine], the IC50 in data set [1] (setting [3]) was greater than 100 µg/mL. The MCC at 144 h in data set [2] is greater than 100 µg/mL.
Consider `C[C@H](NC(=O)OC(C)(C)C)C(=O)OC[C@H]1O[C@@H](n2cc(/C=C/Br)c(=O)[nH]c2=O)C[C@@H]1OC(=O)[C@H](C)NC(=O)OC(C)(C)C` [Example 24, E-5-(2-Bromovinyl)-3',5'-di-(t-butoxy-carbonyl-L-alanyl)-2'-deoxyuridine], for which the IC50 stood at 0.62 µg/mL in data set [1] (setting [3]) and 0.92 µM in data set [1] (setting [4]). Also, the MCC at 144 h in data set [2] was greater than 100 µg/mL.
On the same counts, the results for `CC(C)(C)OC(=O)N[C@@H](CCC(N)=O)C(=O)OC[C@H]1O[C@@H](n2cc(/C=C/Br)c(=O)[nH]c2=O)C[C@@H]1OC(=O)[C@H](CCC(N)=O)NC(=O)OC(C)(C)C` [Example 25, E-5-(2-Bromovinyl)-3',5'-di-(t-butoxycarbonyl-L-glutaminyl)-2'-deoxyuridine] are 0.47 µg/mL, 0.6 µM and greater than 100 µg/mL.
Taken in the same sequence, the figures for `CC(C)(C)OC(=O)NCCCC[C@H](NC(=O)OC(C)(C)C)C(=O)OC[C@H]1O[C@@H](n2cc(/C=C/Br)c(=O)[nH]c2=O)C[C@@H]1OC(=O)[C@H](CCCCNC(=O)OC(C)(C)C)NC(=O)OC(C)(C)C` [Example 26, E-5-(2-Bromovinyl)-3',5'-bis-(Nβ,Nε-di-t-butoxycarbonyl-L-lysyl)-2'-deoxyuridine] were 90 µg/mL, 91 µM and greater than 100 µg/mL.
`CC(C)(C)OC(=O)N1CCC[C@H]1C(=O)OC[C@H]1O[C@@H](n2cc(/C=C/Br)c(=O)[nH]c2=O)C[C@@H]1OC(=O)[C@@H]1CCCN1C(=O)OC(C)(C)C` [Example 27, E-5-(2-Brcmovinyl)-3',5'-di-(t-butoxycarbonyl-L-prolyl)-2'-deoxyuridine]: the IC50 in data set [1] (setting [3]) was determined as 3.51 µg/mL; in data set [1] (setting [4]), 4.83 µM. Also, the MCC at 144 h in data set [2] was found to be 100 µg/mL.
Regarding `CC(C)(C)OC(=O)N1CCC[C@H]1C(=O)OC[C@H]1O[C@@H](n2cc(/C=C/Br)c(=O)[nH]c2=O)C[C@@H]1O` [Example 28], the IC50 in data set [1] (setting [3]) was found to be 2.12 µg/mL; in data set [1] (setting [4]) it was 4 µM. For the same molecule, the MCC at 144 h in data set [2] turned out to be 100 µg/mL.
